The target in series [1] is T1, agalsidase alfa (Homo sapiens, UniProt P06280).
T1 construct: purchased Shire Human Genetic Therapies (Replagal®)
T1 sequence (P06280 32-429): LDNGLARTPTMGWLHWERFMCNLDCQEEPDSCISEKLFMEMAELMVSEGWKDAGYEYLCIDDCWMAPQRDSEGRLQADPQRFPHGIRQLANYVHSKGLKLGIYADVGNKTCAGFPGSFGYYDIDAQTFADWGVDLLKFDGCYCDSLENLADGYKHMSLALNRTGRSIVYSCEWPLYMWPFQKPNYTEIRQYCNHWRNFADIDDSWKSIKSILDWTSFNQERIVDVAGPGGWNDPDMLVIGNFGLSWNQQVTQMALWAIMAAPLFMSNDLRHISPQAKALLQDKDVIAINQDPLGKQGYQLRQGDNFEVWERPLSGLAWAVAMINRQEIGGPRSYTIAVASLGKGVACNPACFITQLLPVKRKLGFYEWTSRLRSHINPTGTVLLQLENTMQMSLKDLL
The series is described as follows: In vitro thermal denaturation assay of agalsidase alfa. The format is binding. On the procedure:
The effect of migalastat hydrochloride on the physical stability of agalsidase alfa was evaluated with an in vitro thermal denaturation assay.

For series [2] the following is noted: cited from earlier work.
In series [3] the target is T2, α-Gal A (Homo sapiens, UniProt P06280).
T2 construct: purchased Genzyme Corporation (Fabrazyme®)
T2 sequence (P06280 32-429): T1 sequence (P06280 32-429)
Nature of the series: Phase 2 co-administration study: skin α-Gal A activity (4-MUG). In kind it is in vivo. Here is the method: α-Gal A Enzyme Levels in Skin. α-Gal A enzyme levels will be examined in skin biopsy samples. Skin biopsies will be done using a “punch” device. One piece will be removed at each visit. α-Gal A levels in skin will be determined by a validated assay measuring enzyme activity using 4-MUG, with and without Con A. α-Gal A protein levels will be measured by Western blotting using anti-human Gal A antibody.
(§1) Methods. The study was conducted according to the methods described in Example 1. Specifically, this was an open-label, single dose, non-randomized, fixed-sequence, 2-stage study. Stage 1 comprised of 3 periods: • (1) agalsidase beta 0.5 mg/kg or 1.0 mg/kg (infusion for about 2 hours) or agalsidase alpha 0.2 mg/kg (infusion for about 40 min.) enzyme replacement montherapy (ERT); • (2) ERT+150 mg migalastat oral tablet (single dose) co-administration, migalastat administered 2 hrs. prior to ERT; and • (3) 150 mg migalastat monotherapy.
(§2) α-Gal A catalyzes the initial step in breakdown of substrate GL-3 in vivo. α-Gal A also acts on other substrates with the same α-bond such as the artificial low-molecular weight florescent substrate, 4-MUG. α-Gal A activity on 4-MUG was measured in vitro from plasma, skin, and PBMC samples following serial dilutions to dissociate migalastat.
(§3) 6 patients with plasma, skin, and PBMC α-galactosidase A activity from Stage 1, Periods 1 and 2, were evaluated. Four patients received 0.5 mg/kg agalsidase beta ERT and 2 patients received 1.0 mg/kg agalsidase beta ERT during Period 1, and co-administration of 150 mg migalastat 2 hours prior to initiation of the same dose of ERT during Period 2.
(§4) Serial blood samples were taken to 24 hours post dose for plasma α-Gal A activity and protein levels each period. Blood samples for α-Gal A activity in peripheral blood mononuclear cells (PBMCs) were taken at predose and on Days 1, 2, 7, and 14 of each period. Punch biopsies for skin α-Gal A activity were taken at predose Period 1 and on Days 2 and 7 during Periods 1 and 2. Plasma α-Gal A activity PK parameters include Cmax, Tmax, AUC0-t, AUC0-inf, and t1/2. Pharmacokinetic parameters are calculated using standard non-compartmental procedures (WINNONLIN version 5.0 or higher).
(§5) α-Gal A activity in plasma skin, and PBMC lysates were measured by a fluorescence enzyme assay using 4-methylumbelliferyl-α-D-galactopyranoside (4-MUG). α-Gal A activity on 4 MUG was measured in vitro following serial dilutions to dissociate migalastat.

Series [4] is described as follows: Phase 2 co-administration study: safety. The format is in vivo, human. The text has this: Safety Parameters. Safety parameters will be assessed by review of changes in physical exam findings, vital signs, ECG changes over time, clinical labs and adverse events.
The safety parameters included adverse events (AEs), vital signs, clinical laboratory tests (hematology, serum chemistry, and urinalysis), electrocardiograms (ECGs), physical examinations, and use of concomitant medications.

The conditions of series [5]: male GLA-deficient mice; 3 and 30 mg/kg three times a week for four weeks with Fabrazyme 1 mg/kg i.v. once a week. On the procedure: A preliminary study in GLA deficient mice has been conducted evaluating the safety of co-administered migalastat hydrochloride and Fabrazyme®. Migalastat hydrochloride was administered three times a week for four weeks at doses of 3 and 30 mg/kg in combination with Fabrazyme® administered intravenously once a week at a dose of 1 mg/kg.

The target of series [6] is T2, α-Gal A. The series is described as follows: Phase 2 co-administration study: PBMC α-Gal A activity (4-MUG). In kind it is in vivo. To be noted: 150 mg migalastat HCl + 0.5 mg/kg agalsidase beta, N=5 (Example 3).
The target of series [7] is T3, rhα-Gal A (Homo sapiens, UniProt P06280).
T3 sequence (P06280 32-429): T1 sequence (P06280 32-429)
The series is described as follows: In vitro stabilization of rhα-Gal A at neutral pH (thermal denaturation and activity). In kind it is biochemical. An excerpt:
Migalastat hydrochloride stabilizes wild-type α-Gal A in vitro and as well as in vivo.

For series [8], the target named is T2, α-Gal A. Nature of the series: Phase 2 co-administration study: PBMC α-Gal A activity (4-MUG). To be noted: for individual patient increases in PBMC α-Gal A activity: 1 mg/kg. In kind it is in vivo. Here is the method:
WBC α-Gal A Levels. α-Gal A levels in WBCs will be determined in blood samples by a validated assay measuring enzyme activity using 4-MUG, with and without Con A. α-Gal A protein levels will be measured by Western blotting using anti-human Gal A antibody.
as §1, §2, §3, §4, §5

Series [9] deals with T3, rhα-Gal A. Nature of the series: Oral migalastat hydrochloride with rhα-Gal A injection in the GLA deficient mouse, tissue α-Gal A and GL-3. To be noted: 30, 100 or 300 mg/kg oral 30 min prior to and 2 hours after rhα-Gal A, vs rhα-Gal A alone. In kind it is in vivo.
Series [10] deals with T2, α-Gal A. Nature of the series: Phase 2 co-administration study: Western blot of plasma α-Gal A protein. The format is in vivo. The conditions noted are these: 5 out of 7 subjects. On the procedure: Migalastat HCl and rhα-Gal A Pharmacokinetics. Concentrations of migalastat HCl in blood samples will be measured in plasma using a validated LC-MS/MS assay. α-Gal A levels in plasma will be determined by a validated assay measuring enzyme activity using 4-MUG, with and without Con A. α-Gal A protein levels will be measured by Western blotting using anti-human Gal A antibody.
Western blot analysis of α-Gal A protein were performed on plasma samples using anti-human α-Gal A antibody. An rhα-Gal A (agalsidase) standard curve was run to calculate the appropriate concentration of α-Gal protein in each sample.

Series [11] deals with T2, α-Gal A. Nature of the series: Phase 2 co-administration study: skin α-Gal A activity (4-MUG). In kind it is in vivo. The conditions noted are these: 150 mg migalastat HCl + 0.5 mg/kg agalsidase beta, N=5 (Example 3).
The conditions of series [12]: cited from earlier work. The source holds these as a separate data set.
For series [13] the following is noted: cited from earlier work. This is another data set of the same source.
Setting [14] is: 150 mg migalastat + 1.0 mg/kg agalsidase beta, Day 2, N=2.
The mark [15] stands for this setting: 150 mg migalastat + 1.0 mg/kg agalsidase beta, Day 7, N=2.

Values joined by “and” are separate entries in the source; they are usually repeats but may differ in a detail not shown here. Equal values may be shown once. Where a name gives a salt, the structure may show the parent alone. Read-outs that look alike come from different tables or passages of the source.

Take “agalsidase alfa: recombinant α-Gal A enzyme replacement therapy (Replagal®, Shire Human Genetic Therapies)”: the “melting temperature (Tm) of agalsidase alfa” value (shortened to “melting temperature (Tm)”) in [1] (pH 5.2, enzyme alone) is 58 °C. Further, the “melting temperature (Tm)” value in series [1] (pH 7.4, enzyme alone) is “approximately 51 °C”. In addition, the AUC versus dose result in series [2] (0.1 to 0.4 mg/kg) is listed as “linearly proportional to dose”. Further, in series [2] (10-week study), the IgE antibodies result is on record as “No IgE antibodies were detected” and the “patients who became IgG positive during the study” value is given as “Two of 18”. Also, in series [2] (all dose groups, independent of dose and dosing frequency), the “Plasma GL-3 levels reduction” value was “approximately 50%”. Also, the mean half life in series [2] (doses 0.1 to 0.4 mg/kg agalsidase alfa, ERT naïve adult male Fabry patients) is 56 to 76 min.
As for `OC[C@H]1NC[C@H](O)[C@@H](O)[C@H]1O` [migalastat hydrochloride, (2R,3S,4R,5S)-2-(hydroxymethyl)piperidine-3,4,5-triol], the “individual patient increases in skin α-Gal A activity” value in [3] (150 mg migalastat + 0.5 mg/kg agalsidase beta, Day 2 (Example 2), 0.5 mg/kg) was 2.8 fold and 3.9 fold and 1.1 fold; in series [3] (150 mg migalastat + 1.0 mg/kg agalsidase beta, Day 2, 1 mg/kg), 1.6 fold and 2.1 fold; in series [3] (150 mg migalastat + 1.0 mg/kg agalsidase beta, Day 7, 1 mg/kg), 1.7 fold and 1.2 fold. For the same compound, the “mean increase in skin α-Gal A activity” value in series [3] (150 mg migalastat + 0.5 mg/kg agalsidase beta, Day 2, N=3 (Example 2)) is on record as 2.6 fold; in series [3] (setting [14]), 1.9 fold; in series [3] (setting [15]), 1.5 fold; in [11] (Day 2), 2.6 fold; in [11] (Day 7) it was 1.4 fold. Besides, the “change in skin α-Gal A activity from Period 1” value in series [3] (150 mg migalastat + 0.5 mg/kg agalsidase beta, Day 7 (Example 2)) is listed as “No change”. In [3] (150 mg migalastat + 0.5 or 1.0 mg/kg agalsidase beta, Day 7), the “patients with increased skin α-Gal A activity following co-administration” value was 3 of 5 and four. Besides, the safety and tolerability entry in [4] (co-administration of 150 mg migalastat HCl with agalsidase beta) is “generally safe and well-tolerated”. Further, the “adverse events (AEs) reported” value in [4] (seven subjects, to date, one serious (TIA, prior to dosing), all considered unrelated to study drug) came out at 12. The “melting temperature (Tm)” value in [1] (pH 5.2, 10 μM migalastat hydrochloride) came out at 68 °C; in [1] (pH 7.4, 10 μM migalastat hydrochloride), 59 °C. Also, in series [5], the “survival, clinical condition, hematology and clinical chemistry parameters” value is listed as “no direct drug-related changes”. Further, the “mean increase in PBMC α-Gal A activity” value was 2.4 fold in [6] (Day 2); 1.9 fold in [6] (Day 7); 2.1 fold in [6] (Day 14); 2.3 fold in [8] (150 mg migalastat + 0.5 mg/kg agalsidase beta, Day 2, N=4 (Example 2)); 2.0 fold in series [8] (150 mg migalastat + 0.5 mg/kg agalsidase beta, Day 7, N=4 (Example 2)); 2.2 fold in [8] (150 mg migalastat + 0.5 mg/kg agalsidase beta, Day 14, N=4 (Example 2)). Also, the “mean increase in PBMC α-Gal A activity” value in series [8] (setting [14]) was 1.8 fold; in series [8] (setting [15]) it was 4.8 fold; in series [8] (150 mg migalastat + 1.0 mg/kg agalsidase beta, Day 14, N=2), 3.5 fold. Also, the “stabilization of rhα-Gal A” value in series [7] is “significant time- and concentration-dependent increases in stabilization”. Also, the “individual patient increase range in PBMC α-Gal A activity” value in series [8] (150 mg migalastat + 0.5 mg/kg agalsidase beta, Day 2) is 1.4-3.1 fold; in [8] (150 mg migalastat + 0.5 mg/kg agalsidase beta, Day 7) it was 1.4-2.3 fold; in [8] (150 mg migalastat + 0.5 mg/kg agalsidase beta, Day 14), 1.7-2.8 fold. Further, the “individual patient increases in PBMC α-Gal A activity” value is 1.1 fold and 2.5 fold in [8] (150 mg migalastat + 1.0 mg/kg agalsidase beta, Day 2); 3.6 fold and 6.0 fold in [8] (150 mg migalastat + 1.0 mg/kg agalsidase beta, Day 7); 1.7 fold and 5.4 fold in series [8] (150 mg migalastat + 1.0 mg/kg agalsidase beta, Day 14). In addition, the “GL-3 levels in skin, heart, kidney, and plasma” value in [9] is on record as “dose-dependent reduction”. Moreover, the “tissue α-Gal A levels” value in [9] was “dose-dependent increase”. In series [10], the “plasma α-Gal A protein, Period 2 (co-administration)/Period 1 (ERT alone) AUC ratio” value was “No change”.
Consider “agalsidase beta: recombinant α-Gal A enzyme replacement therapy (Fabrazyme®; Genzyme Corporation)”, for which the “patients with decreased skin α-Gal A activity relative to baseline” value in series [3] (agalsidase beta alone, 0.5 mg/kg infusion, Day 2) is recorded as 2. Further, in [12] (adult patients with the highest titers of IgG), the “maximal agalsidase concentrations and AUC values reduced, of baseline values” is reported as “up to 26%”. The “patients who developed IgG antibodies” value in series [12] (adult patients) is listed as 79%; in series [12] (pediatric patients), 69%. For the same compound, the “pharmacokinetics, dose linearity” value in series [13] (AUC increasing and clearance decreasing disproportionally with dose) was “non-linear pharmacokinetics”. The AUC increase entry is reported as “approximately 6 fold” in series [13] (dose increased from 0.3 mg/kg to 1 mg/kg) and about 8 fold in [13] (dose increased from 1 mg/kg to 3 mg/kg). Also, the “PBMC α-Gal A activity relative to baseline” value in series [8] (agalsidase beta alone, all patients, all time points) is recorded as “increased”.

(Values after patent US20140219986A1, “DOSING REGIMENS FOR THE TREATMENT OF FABRY DISEASE” (AMICUS THERAPEUTICS ,INC., priority 2011, published 2014).)
